The values that follow come from patent US11066392B2, “Inhibitors of indoleamine 2,3-dioxygenase and methods of their use” (BRISTOL-MYERS SQUIBB COMPANY, priority 2017, dated 2021).

The target of one experiment is indoleamine 2,3-dioxygenase (IDO) (Homo sapiens, UniProt P14902). The experiment is described as follows: HeLa cell-based indoleamine 2,3-dioxygenase (IDO) assay (kynurenine production, IFNγ-stimulated). As to conditions: HeLa cells, IFNγ 25 ng/mL, 48 hour incubation; read-out: IDO Hela IC50.
Chain of indoleamine 2,3-dioxygenase (IDO) (P14902 whole entry): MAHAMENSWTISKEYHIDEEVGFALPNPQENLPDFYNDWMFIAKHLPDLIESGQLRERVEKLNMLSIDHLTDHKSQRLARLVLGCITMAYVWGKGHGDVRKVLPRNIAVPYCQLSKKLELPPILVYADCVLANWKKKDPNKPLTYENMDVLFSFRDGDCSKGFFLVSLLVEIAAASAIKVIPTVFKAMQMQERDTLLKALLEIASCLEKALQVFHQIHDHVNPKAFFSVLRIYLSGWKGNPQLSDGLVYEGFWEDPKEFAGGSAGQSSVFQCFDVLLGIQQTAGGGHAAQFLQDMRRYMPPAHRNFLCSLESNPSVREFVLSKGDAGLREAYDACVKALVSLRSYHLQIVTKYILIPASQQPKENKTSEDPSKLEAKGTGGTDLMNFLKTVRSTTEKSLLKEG
`CC[C@@H](NC(=O)c1ccc(OC)nc1)[C@H]1CC[C@@H](c2ccnc(F)c2C)CC1` (single isomer, unassigned) [Example 56b, N-(1-(4-(2-fluoro-3-methylpyridin-4-yl)cyclohexyl)propyl)-6-methoxynicotinamide]: the IC50 stood at 120 nM.
Same read-out and setting: then `CC[C@@H](NC(=O)c1ccc(OC)nc1)[C@H]1CC[C@@H](c2ccnc(F)c2C)CC1` (single isomer, unassigned) [Example 56c, N-(1-(4-(2-fluoro-3-methylpyridin-4-yl)cyclohexyl)propyl)-6-methoxynicotinamide], with 600 nM; and `CCC(NC(=O)c1ccc(OC)nc1)C1CCC(c2ccnc3c(F)cc(F)cc23)CC1` (single isomer, unassigned) [Example 57a], with 830 nM.
Same read-out and setting: then `CCC(NC(=O)c1ccc(OC)nc1)C1CCC(c2ccnc3c(F)cc(F)cc23)CC1` (single isomer, unassigned) [Example 57c], with 130 nM.
Still for that read-out and setting: then `CCC(NC(=O)c1ccc(OC)nc1)C1CCC(c2ccnc3c(F)cc(F)cc23)CC1` (single isomer, unassigned) [Example 57d], with 40 nM; and `CCC(NC(=O)c1cnc(OC)nc1)C1CCC(c2ccnc3c(F)cc(F)cc23)CC1` (single isomer, unassigned) [Example 58a], with 310 nM; and `CCC(NC(=O)c1cnc(OC)nc1)C1CCC(c2ccnc3c(F)cc(F)cc23)CC1` (single isomer, unassigned) [Example 58b], with 500 nM.
Regarding `CCC(NC(=O)c1cnc(OC)nc1)C1CCC(c2ccnc3c(F)cc(F)cc23)CC1` (single isomer, unassigned) [Example 58c], the IC50 was 360 nM.
On to `CC[C@@H](NC(=O)c1ccc(OC)nc1)[C@H]1CC[C@@H](c2ccnc3c(F)cccc32)CC1` (single isomer, unassigned) [Example 59a, N-(1-(4-(8-fluoroquinolin-4-yl)cyclohexyl)propyl)-6-methoxynicotinamide], for which the IC50 came out at 100 nM.
On the same count and under the same terms, then `CC[C@@H](NC(=O)c1ccc(OC)nc1)[C@H]1CC[C@@H](c2ccnc3c(F)cccc32)CC1` (single isomer, unassigned) [Example 59c, N-(1-(4-(8-fluoroquinolin-4-yl)cyclohexyl)propyl)-6-methoxynicotinamide], with 330 nM.
Still for that read-out and setting: then `CC[C@@H](NC(=O)c1ccc(OC)nc1)[C@H]1CC[C@@H](c2ccnc3c(F)cccc32)CC1` (single isomer, unassigned) [Example 59d, N-(1-(4-(8-fluoroquinolin-4-yl)cyclohexyl)propyl)-6-methoxynicotinamide], with 110 nM.
Same read-out and setting: then `CC[C@@H](NC(=O)c1cnc(OC)nc1)[C@H]1CC[C@@H](c2ccnc3c(F)cccc32)CC1` (single isomer, unassigned) [Example 60a, N-(1-(4-(8-fluoroquinolin-4-yl)cyclohexyl)propyl)-2-methoxypyrimidine-5-carboxamide], with 820 nM; and `CC[C@@H](NC(=O)c1cnc(OC)nc1)[C@H]1CC[C@@H](c2ccnc3c(F)cccc32)CC1` (single isomer, unassigned) [Example 60b, N-(1-(4-(8-fluoroquinolin-4-yl)cyclohexyl)propyl)-2-methoxypyrimidine-5-carboxamide], with 250 nM; and `CC[C@@H](NC(=O)c1cnc(OC)nc1)[C@H]1CC[C@@H](c2ccnc3c(F)cccc32)CC1` (single isomer, unassigned) [Example 60c, N-(1-(4-(8-fluoroquinolin-4-yl)cyclohexyl)propyl)-2-methoxypyrimidine-5-carboxamide], with 10 nM.
`CC[C@@H](NC(=O)c1cnc(OC)nc1)[C@H]1CC[C@@H](c2ccnc3c(F)cccc32)CC1` (single isomer, unassigned) [Example 60d, N-(1-(4-(8-fluoroquinolin-4-yl)cyclohexyl)propyl)-2-methoxypyrimidine-5-carboxamide]: the concentration for half-maximal inhibition (IC50) is 170 nM.
For `CC[C@H](NC(=O)c1cnc(C)nc1)[C@H]1CC[C@H](c2ccnc3c(F)cccc32)CC1` (single isomer, unassigned) [Example 61b, N-(1-(4-(8-fluoroquinolin-4-yl)cyclohexyl)propyl)-2-methylpyrimidine-5-carboxamide], the 50% inhibitory concentration (IC50) came to 670 nM.
Same read-out and setting: as for `CC[C@H](NC(=O)c1cnc(C)nc1)[C@H]1CC[C@H](c2ccnc3c(F)cccc32)CC1` (single isomer, unassigned) [Example 61d, N-(1-(4-(8-fluoroquinolin-4-yl)cyclohexyl)propyl)-2-methylpyrimidine-5-carboxamide], the figure is 20 nM; as for `COc1ccc(C(=O)NC(C)C2(O)CCC(c3ccnc4ccc(F)cc34)CC2)cn1` (single isomer, unassigned) [Example 62a, N-(1-((1r,4r)-4-(6-fluoroquinolin-4-yl)-1-hydroxycyclohexyl)ethyl)-6-methoxynicotinamide], 70 nM.
The same measure, in the same setting: then `COc1ccc(C(=O)NC(C)C2(O)CCC(c3ccnc4ccc(F)cc34)CC2)cn1` (single isomer, unassigned) [Example 62b, N-(1-((1r,4r)-4-(6-fluoroquinolin-4-yl)-1-hydroxycyclohexyl)ethyl)-6-methoxynicotinamide], with 20 nM.
As for `COCC(NC(=O)c1ccc(OC)nc1)C1CCC(c2ccnc3ccc(F)cc23)CC1` (centres unmarked) [Example 14b, N-(1-((1s,4s)-4-(6-Fluoroquinolin-4-yl)cyclohexyl)-2-methoxyethyl)-6-methoxynicotinamide], the IC50 came to 10 nM.
Same read-out and setting: as for `CCC(NC(=O)c1cnc(C)nc1)C1CCC(c2ccnc(OC)c2F)CC1` (centres unmarked) [Example 23, N-(1-(4-(3-Fluoro-2-methoxypyridin-4-yl)cyclohexyl)propyl)-2-methylpyrimidine-5-carboxamide], the figure is 110 nM.

The experiment is the same for the next values; noted with them: HeLa cells; potency class; read-out: Patent Potency Hela IC50 A < 10 nM, B > 10 nM, C > 100 nM.
As for `CC[C@@H](NC(=O)c1ccc(OC)nc1)[C@H]1CC[C@@H](c2ccnc3ncccc32)CC1` (single isomer, unassigned) [Example 53c, N-(1-(4-(1,8-naphthyridin-4-yl)cyclohexyl)propyl)-6-methoxynicotinamide], the IC50 was over 100 nM.
The same measure, in the same setting: as for `CCC(NC(=O)c1ccc(OC)nc1)C1CCC(c2ccnc3c(F)cc(F)cc23)CC1` (single isomer, unassigned) [Example 57b], the figure is under 10 nM.
`CCC(NC(=O)c1cnc(OC)nc1)C1CCC(c2ccnc3c(F)cc(F)cc23)CC1` (single isomer, unassigned) [Example 58d]: the IC50 is under 10 nM.
Regarding `CC[C@H](NC(=O)c1cnc(C)nc1)[C@H]1CC[C@H](c2ccnc3c(F)cccc32)CC1` (single isomer, unassigned) [Example 61c, N-(1-(4-(8-fluoroquinolin-4-yl)cyclohexyl)propyl)-2-methylpyrimidine-5-carboxamide], the IC50 was over 100 nM.
For `CCC(NC(=O)c1ccc(=O)[nH]c1)C1CCC(c2ccnc(OC)c2C(F)F)CC1` (single isomer, unassigned) [Example 63-1, N-(1-((1s,4s)-4-(3-(difluoromethyl)-2-methoxypyridin-4-yl)cyclohexyl)propyl)-6-oxo-1,6-dihydropyridine-3-carboxamide], the half-maximal inhibitory concentration (IC50) is over 100 nM.
`CCC(NC(=O)c1ccc(OC)nc1)C1CCC(c2cc[nH]c(=O)c2C(F)F)CC1` (single isomer, unassigned) [Example 64-1, N-(1-((1s,4s)-4-(3-(difluoromethyl)-2-oxo-1,2-dihydropyridin-4-yl)cyclohexyl)propyl)-6-methoxynicotinamide]: the IC50 is over 100 nM.
`[2H]C([2H])([2H])Oc1ccc(C(=O)NC(CC)C2CCC(c3ccnc(OC)c3C(F)F)CC2)cn1` (single isomer, unassigned) [Example 66-1, N-(1-((1s,4s)-4-(3-(difluoromethyl)-2-methoxypyridin-4-yl)cyclohexyl)propyl)-6-(methoxy-d3)nicotinamide]: the IC50 was over 100 nM.
On the same count and under the same terms, as for `[2H]C([2H])([2H])Oc1ccc(C(=O)NC(CC)C2CCC(c3ccnc(OC)c3C(F)F)CC2)cn1` (single isomer, unassigned) [Example 66-2, N-(1-((1s,4s)-4-(3-(difluoromethyl)-2-methoxypyridin-4-yl)cyclohexyl)propyl)-6-(methoxy-d3)nicotinamide], the figure is under 10 nM; as for `CCC(NC(=O)c1ccc(OC)nc1)C1CCC(c2ccnc(F)c2C)CC1` (single isomer, unassigned) [Example 68-1, N-(1-((1r,4r)-4-(2-Fluoro-3-methylpyridin-4-yl)cyclohexyl)propyl)-6-methoxynicotinamide], over 10 nM; as for `CCC(NC(=O)c1ccc(OC)nc1)C1CCC(c2ccnc(F)c2C)CC1` (single isomer, unassigned) [Example 68-2, N-(1-((1r,4r)-4-(2-Fluoro-3-methylpyridin-4-yl)cyclohexyl)propyl)-6-methoxynicotinamide], over 100 nM.
Same read-out and setting: then `COCC(NC(=O)c1ccc(OC)nc1)C1CCC(c2ccnc3ccc(F)cc23)CC1` (centres unmarked) [Example 14a, N-(1-((1s,4s)-4-(6-Fluoroquinolin-4-yl)cyclohexyl)-2-methoxyethyl)-6-methoxynicotinamide], with under 10 nM; and `CCC(NC(=O)c1ccc(OC)nc1)C1CCC(c2ccnc(OC)c2F)CC1` (centres unmarked) [Example 22, N-(1-(4-(3-Fluoro-2-methoxypyridin-4-yl)cyclohexyl)propyl)-6-methoxynicotinamide], with over 100 nM; and `CCC(NC(=O)c1ccc(=O)[nH]c1)[C@H]1CC[C@@H](c2ccnc(OC)c2C(F)F)CC1` (some centres unmarked) [Example 63-2, N-(1-((1s,4s)-4-(3-(difluoromethyl)-2-methoxypyridin-4-yl)cyclohexyl)propyl)-6-oxo-1,6-dihydropyridine-3-carboxamide], with over 10 nM.
As for `CCC(NC(=O)c1ccc(OC)nc1)[C@H]1CC[C@@H](c2cc[nH]c(=O)c2C(F)F)CC1` (some centres unmarked) [Example 64-2, N-(1-((1s,4s)-4-(3-(difluoromethyl)-2-oxo-1,2-dihydropyridin-4-yl)cyclohexyl)propyl)-6-methoxynicotinamide], the IC50 is over 100 nM.

One may read the IC50 as the midpoint of a concentration-inhibition curve.
